Measurements: US11918582B2 (RAPT Therapeutics, Inc., priority 2021, dated 2024)
pIC50: −log10 of the molar value. Structures can show the parent of a compound that is named as a salt.

Target: T1, human HPK1 (MAP4K1) (Homo sapiens, UniProt Q92918)
T1 construct: Recombinant human HPK1 kinase domain was obtained from ThermoFisher (Cat. #PV6357) and SignalChem (Cat. #M23-11G); purchased ThermoFisher; SignalChem PV6357; M23-11G
T1 sequence (Q92918 17-274 limits assumed): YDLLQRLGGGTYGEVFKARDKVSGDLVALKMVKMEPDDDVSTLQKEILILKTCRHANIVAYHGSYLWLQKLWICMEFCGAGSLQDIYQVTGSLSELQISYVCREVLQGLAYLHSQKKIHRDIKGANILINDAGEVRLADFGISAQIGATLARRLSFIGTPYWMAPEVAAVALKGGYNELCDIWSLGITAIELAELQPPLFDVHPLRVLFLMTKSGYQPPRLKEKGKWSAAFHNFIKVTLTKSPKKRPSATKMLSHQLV
Experiment: Biochemical assay for activity against HPK1 (ADP-Glo, MBP substrate)
Details: recombinant human HPK1 kinase domain, 1 nM enzyme, ADP-Glo luminescence
From the text: These compounds are made by the synthetic methods described earlier herein. Example 227 Biochemical Assay for Testing Compounds for Activity against HPK1
The enzymatic activity of human HPK1 (MAP4K1) was monitored in a biochemical assay in the presence or absence of compounds, using a peptide substrate (myelin basic protein, MBP), with an ADP-Glo assay kit (Promega, Cat. #V9103). An increase in phosphorylation of the peptide by HPK1 was indicative of its kinase activity.
Recombinant human HPK1 kinase domain was obtained from ThermoFisher (Cat. #PV6357) and SignalChem (Cat. #M23-11G). A 1 nM HPK1 kinase enzyme solution was prepared from the HPK1 stock received from the commercial supplier using an assay buffer containing 50 mM HEPES (4-(2-hydroxyethyl)-1-piperazineethanesulfonic acid) pH 7.5 (Fisher Scientific, Cat. #H1035), 150 mM NaCl (Fisher Scientific, Cat. #50843067), 3 mM TCEP-HCl (Tris(2-carboxyethyl)phosphine hydrochloride; Fisher Scientific, Cat. #PIPG82080), 10 mM MgCl2 (Fisher Scientific, Cat. #AM9530G), 0.005% Tween-20 (Fisher Scientific, Cat. #BP337500) and 0.01% BSA (bovine serum albumin; ThermoFisher, Cat. #15260037), in ultra-pure water. The final concentration of the assay buffer was 770 nM. A 5 mM stock solution of the peptide substrate was prepared using […] MBP (Myelin Basic Protein, Active Motif, Cat. #31314), 10 mM ATP (adenosine 5′-triphosphate; Sigma-Aldrich, Cat. #GE27-2056-01) and of assay buffer.
Test compounds were dissolved in DMSO (dimethyl sulfoxide) at 10 mM and then serial dilutions were prepared using a ViaFlow assist multichannel dispenser (Integra ViaFlo). 20 nL of test compounds at various concentrations were dispensed into a 1536-well assay plate (Corning Cat. #7247) using an Echo Nanoliter dispenser (Labcyte ECHO 550). […] of a 1 nM solution of HPK1 kinase enzyme diluted in assay buffer was added to the compound-containing plate using a Mantis Microliter dispenser (Formulatrix Mantis), covered with a lid, and incubated for 15 minutes at room temperature. 50 nL of a 5 mM stock solution of the peptide substrate (MBP) were added using the Echo Nanoliter dispenser. The plate was covered with a lid, centrifugated at 500 rpm for 1 minute and incubated for 2 hours at room temperature. […] of ADP-Glo reagent A was added using the Mantis Microliter dispenser, centrifugated at 500 rpm for 30 seconds and incubated for 40 minutes at room temperature. […] of ADP-Glo reagent B was added using the Mantis Microliter dispenser, centrifugated at 500 rpm for 30 seconds and incubated for 30 minutes at room temperature. Peptide phosphorylation was measured by luminescence on an Envision plate reader (PerkinElmer).
The HPK1 biochemical IC50 activity levels of the compounds of Examples 1-225 were tested using this assay and are shown in Table 2.

Structure (SMILES) | pIC50
COc1cc2c(cc1Nc1ncc3cnn(C[C@H]4C[C@H]4C)c3n1)CN(C)CC2 (racemic) [Example 202, 6-methoxy-2-methyl-N-(1-((cis-2-methylcyclopropyl)methyl)-1H-pyrazolo[3,4-d]pyrimidin-6-yl)-1,2,3,4-tetrahydroisoquinolin-7-amine, Trifluoroacetate Salt] | > 7.00
COc1cc2c(cc1Nc1ncc3cnn(C[C@@H]4C[C@@H]4F)c3n1)CN(C)CC2 (racemic) [Example 207, N-(1-(((cis)-2-fluorocyclopropyl)methyl)-1H-pyrazolo[3,4-d]pyrimidin-6-yl)-6-methoxy-2-methyl-1,2,3,4-tetrahydroisoquinolin-7-amine] | > 7.00
COc1cc2c(cc1Nc1ncc3cnn(C[C@@H]4[C@@H](C)CCN4C(C)=O)c3n1)CN(C)CC2 (racemic) [Example 214, 1-[2-[[6-[(6-methoxy-2-methyl-3,4-dihydro-1H-isoquinolin-7-yl)amino]pyrazolo[3,4-d]pyrimidin-1-yl]methyl]-3-methyl-pyrrolidin-1-yl]ethenone] | > 7.00
CCOC(=O)[C@@H]1CCC[C@H](n2ncc3cnc(Nc4cc5c(cc4OC)CCN(C)C5)nc32)C1 (relative stereo) [Example 21, ethyl cis-3-(6-((6-methoxy-2-methyl-1,2,3,4-tetrahydroisoquinolin-7-yl)amino)-1H-pyrazolo[3,4-d]pyrimidin-1-yl)cyclohexane-1-carboxylate] | > 7.00
COc1cc2c(cc1Nc1ncc3cnn([C@@H]4CCC[C@H](CO)C4)c3n1)CN(C)CC2 (relative stereo) [Example 22, cis-3-(6-((6-methoxy-2-methyl-1,2,3,4-tetrahydroisoquinolin-7-yl)amino)-1H-pyrazolo[3,4-d]pyrimidin-1-ylcyclohexyl)methanol] | > 7.00
COc1cc2c(cc1Nc1ncc3cnn([C@H]4CCC[C@@H](O)C4)c3n1)CN(C)CC2 (relative stereo) [Example 23, cis-3-(6-((6-methoxy-2-methyl-1,2,3,4-tetrahydroisoquinolin-7-yl)amino)-1H-pyrazolo[3,4-d]pyrimidin-1-yl)cyclohexan-1-ol] | > 7.00
COc1cc2c(cc1Nc1ncc3cnn([C@@H]4CC[C@H](CO)C4)c3n1)CN(C)CC2 (relative stereo) [Example 24] | > 7.00
COc1cc2c(cc1Nc1ncc3c(C)nn([C@H]4CC[C@@H](O)C4)c3n1)CN(C)CC2 (relative stereo) [Example 149, (rel-1S,3R)-3-(6-((6-methoxy-2-methyl-1,2,3,4-tetrahydroisoquinolin-7-yl)amino)-3-methyl-1H-pyrazolo[3,4-d]pyrimidin-1-yl)cyclopentan-1-ol] | > 7.00
COc1cc2c(cc1Nc1ncc3cnn([C@@H]4C[C@@H]5C[C@H]4N(C(C)=O)C5)c3n1)CN(C)CC2 (relative stereo) [Example 193, rel-1-((1R,4S,6R)-6-(6-((6-methoxy-2-methyl-1,2,3,4-tetrahydroisoquinolin-7-yl)amino)-1H-pyrazolo[3,4-d]pyrimidin-1-yl]-2-azabicyclo[2.2.1]heptan-2-yl)ethan-1-one] | > 7.00
COc1cc2c(cc1Nc1ncc3cnn(C[C@H]4C[C@H]4CO)c3n1)CN(C)CC2 (relative stereo) [Example 205, (cis-2-((6-((6-methoxy-2-methyl-1,2,3,4-tetrahydroisoquinolin-7-yl)amino)-1H-pyrazolo[3,4-d]pyrimidin-1-yl)methyl)cyclopropyl)methanol] | > 7.00
COc1cc2c(cc1Nc1ncc3cnn(C[C@H]4[C@H](C)CCN4C(C)=O)c3n1)CN(C)CC2 (single isomer, unassigned) [Example 147] | 6.60 to 7.00
COc1cc2c(cc1Nc1ncc3cnn(C[C@@H]4[C@@H](C)CCN4C(C)=O)c3n1)CN(C)CC2 (single isomer, unassigned) [Example 148] | > 7.00
COc1cc2c(cc1Nc1ncc3cnn([C@H]4CCC[C@H](C(N)=O)C4)c3n1)CN(C)CC2 (stereo in doubt) [Example 40, (1S,3S)-3-(6-((6-methoxy-2-methyl-1,2,3,4-tetrahydroisoquinolin-7-yl)amino)-1H-pyrazolo[3,4-d]pyrimidin-1-yl)cyclohexane-1-carboxamide] | > 7.00
COc1cc2c(cc1Nc1ncc3cnn(C4CCC(CO)CC4)c3n1)CN(C)CC2 (stereo in doubt) [Example 64, cis-[4-[6-[(6-methoxy-2-methyl-3,4-dihydro-1H-isoquinolin-7-yl)amino]pyrazolo[3,4-d]pyrimidin-1-yl]cyclohexyl]methanol] | > 7.00
CN1CCc2ccc(Nc3ncc4cnn(C5COC5)c4n3)cc2C1 [Example 1, 2-methyl-N-(1-(oxetan-3-yl)-1H-pyrazolo[3,4-d]pyrimidin-6-yl)-1,2,3,4-tetrahydroisoquinolin-7-amine] | > 7.00
Cc1nn(C2COC2)c2nc(Nc3ccc4c(c3)CN(C)CC4)ncc12 [Example 2, 2-methyl-N-[3-methyl-1-(oxetan-3-yl)pyrazolo[3,4-d]pyrimidin-6-yl]-3,4-dihydro-1H-isoquinolin-7-amine] | > 7.00
COc1cc2c(cc1Nc1ncc3c(C)nn(C4COC4)c3n1)CN(C)CC2 [Example 3, 6-methoxy-2-methyl-N-[3-methyl-1-(oxetan-3-yl)pyrazolo[3,4-d]pyrimidin-6-yl]-3,4-dihydro-1H-isoquinolin-7-amine] | > 7.00
CN1CCc2ccc(Nc3ncc4cnn(CCN5CCCS5(=O)=O)c4n3)cc2C1 [Example 4, N-[1-[2-(1,1-dioxo-1,2-thiazolidin-2-yl)ethyl]pyrazolo[3,4-d]pyrimidin-6-yl]-2-methyl-3,4-dihydro-1H-isoquinolin-7-amine trifluoroacetate] | > 7.00
CN1CCc2ccc(Nc3ncc4cnn(C)c4n3)cc2C1 [Example 5, 2-methyl-N-(1-methylpyrazolo[3,4-d]pyrimidin-6-yl)-3,4-dihydro-1H-isoquinolin-7-amine] | > 7.00
CC(C)n1nc(C(F)(F)F)c2cnc(Nc3ccc4c(c3)CN(C)CC4)nc21 [Example 6, N-[1-isopropyl-3-(trifluoromethyl)pyrazolo[3,4-d]pyrimidin-6-yl]-2-methyl-3,4-dihydro-1H-isoquinolin-7-amine] | > 7.00
COc1cc2c(cc1Nc1ncc3c(C(F)(F)F)nn(C(C)C)c3n1)CN(C)CC2 [Example 7, N-(1-isopropyl-3-(trifluoromethyl)-1H-pyrazolo[3,4-d]pyrimidin-6-yl)-6-methoxy-2-methyl-1,2,3,4-tetrahydroisoquinolin-7-amine] | > 7.00
CCOC(=O)CCCn1ncc2cnc(Nc3ccc4c(c3)CN(C)CC4)nc21 [Example 8, Ethyl 4-(6-((2-methyl-1,2,3,4-tetrahydroisoquinolin-7-yl)amino)-1H-pyrazolo[3,4-d]pyrimidin-1-yl)butanoate] | > 7.00
CCOC(=O)Cn1ncc2cnc(Nc3ccc4c(c3)CN(C)CC4)nc21 [Example 9, Ethyl 2-[6-[(2-methyl-3,4-dihydro-1H-isoquinolin-7-yl)amino]pyrazolo[3,4-d]pyrimidin-1-yl]acetate] | > 7.00
CC(CO)n1ncc2cnc(Nc3ccc4c(c3)CN(C)CC4)nc21 (stereo not shown) [Example 10, 2-[6-[(2-methyl-3,4-dihydro-1H-isoquinolin-7-yl)amino]pyrazolo[3,4-d]pyrimidin-1-yl]propan-1-ol trifluoroacetate] | > 7.00
COC(C)(C)CCn1ncc2cnc(Nc3ccc4c(c3)CN(C)CC4)nc21 [Example 11, N-(1-(3-methoxy-3-methylbutyl)-1H-pyrazolo[3,4-d]pyrimidin-6-yl)-2-methyl-1,2,3,4-tetrahydroisoquinolin-7-amine] | > 7.00
